# Molecular target: T1, rM4 receptors (Rattus norvegicus, UniProt P08485)
# T1 construct: expressed in transfected cells; host or cells: CHO cells
# T1 sequence (P08485 1-478): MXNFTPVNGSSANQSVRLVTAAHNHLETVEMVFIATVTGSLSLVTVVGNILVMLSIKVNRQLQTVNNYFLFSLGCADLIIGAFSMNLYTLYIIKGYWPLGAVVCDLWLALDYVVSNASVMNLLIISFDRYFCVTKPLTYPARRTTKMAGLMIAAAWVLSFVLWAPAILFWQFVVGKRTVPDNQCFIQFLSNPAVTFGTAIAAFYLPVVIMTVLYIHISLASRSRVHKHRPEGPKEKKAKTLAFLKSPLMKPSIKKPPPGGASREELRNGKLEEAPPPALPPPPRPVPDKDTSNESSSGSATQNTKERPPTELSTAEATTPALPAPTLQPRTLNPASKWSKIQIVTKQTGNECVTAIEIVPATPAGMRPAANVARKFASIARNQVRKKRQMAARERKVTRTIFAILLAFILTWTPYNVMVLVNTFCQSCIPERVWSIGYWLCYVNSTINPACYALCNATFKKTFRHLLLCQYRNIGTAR
# Assay: Rat M4 PAM PERK assay (CHO cells, TR-FRET, with EC20 acetylcholine)
# Assay type: cell-based
# Procedure, shortened: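 CHO cells expressing human or rat M4, serum-starved 4 h, then given compound (10-point, 10 μM top, ½-log) with EC20 acetylcholine (10 nM final) for 5 min at 37 °C. Lysates assayed for phospho-ERK by TR-FRET after 2 h detection at RT.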
structure (smiles),measurement,value
Cc1c2c(n(C)c(=O)c1F)CN(C(=O)CC1CN(c3ccc(C4CC4)c(F)c3)C1)C2 [Compound I-88],EC50,< 50 nM
Cc1cc(=O)n(C)c2c1CN(C(=O)CC1CN(c3cc(F)cc(C4CC4)c3)C1)C2 [Compound I-4],EC50,50 to 200 nM
Cc1cc(=O)n(C)c2c1CN(C(=O)CC1CN(c3cccc(F)c3F)C1)C2 [Compound I-14],EC50,200 to 1000 nM
"Cc1c2c(n(C)c(=O)c1C)CN(C(=O)CC1CN(c3ccnc(C(F)(F)F)c3)C1)C2 [Compound I-42, 1,3,4-Trimethyl-6-(2-(1-(2-(trifluoromethyl)pyridin-4-yl)azetidin-3-yl)acetyl)-1,5,6,7-tetrahydro-2H-pyrrolo[3,4-b]pyridin-2-one]",EC50,50 to 200 nM

# Reference: patent US20260209220A1, “SUBSTITUTED TETRAHYDROPYRROLO-PYRIDINONE COMPOUNDS AND THEIR USE IN TREATING MEDICAL CONDITIONS” (Karuna Therapeutics, Inc., priority 2022, published 2026)
